These results are taken from US4585784A, “Pyrrole-2-acetylamino acid derivative compounds” (McNeilab, Inc., priority 1983, dated 1986).

Like-named read-outs stand apart in the source and are kept apart here.

A short description of series [1]: rat adjuvant arthritis test (antiinflammatory activity). The class given is in vivo, Female Wistar/Lewis rats. The note with it: oral, daily for 4 days, inhibition of noninjected hind paw volume vs controls, compounds given as aqueous solutions of sodium salts. The procedure:
The antiinflammatory activity of the compounds of the instant invention was measured using the rat adjuvant arthritis test [S. Wong, J. F. Gardocki and T. P. Pruss, J. Pharmacol. and Exp. Ther. 185, 127 (1973)]. Female Wistar/Lewis rats were given an injection of heat-killed Mycobacterium butyricum in light mineral oil. After 11 days, the animals which had developed an arthritic condition were selected and given daily oral doses of test drug for 4 days. Paw volumes were measured and the percent inhibition of the noninjected hind paw as compared to controls was calculated. The results (Table I) are expressed as ED50 (mg/kg/day).

Series [2] can be described thus: gastric ulceration test (ability to induce gastric ulceration, 4 days oral dosing). The note with it: in vivo; for selectivity ratio: therapeutic index in respect to gastric ulceration, * = significantly different from parent compound p ≤0.05, read-out: AII (antiinflammatory index, UD50/ED50). As for the experimental part:
In addition to their antiinflammatory activity, the compounds were evaluated for their ability to induce gastric ulceration since gastric irritation is the most significant side effect following administration of prostaglandin biosynthesis inhibitors. As described by Wong et al., the dose (UD50 mg/kg/day) required to produce 50 percent ulcerogenic response following 4 days of oral dosing with test drug was determined. The results are shown in Table I. As described by Wong et al., a therapeutic index in respect to gastric ulceration, the "antiinflammatory index (AII)" defined as UD50 /ED50, was determined.

For series [3] the following is noted: in vivo; cited from earlier work.
The test system of series [4] is prostaglandin biosynthesis. The note with it: cited from earlier work.

For the compound `Cc1cc(CC(=O)NCC(=O)O)n(C)c1C(=O)c1ccc(Cl)cc1` [Example VII, N-{[5-(4-chlorobenzoyl)-1,4-dimethyl-1H-pyrrol-2-yl]-acetyl}-glycine], in series [1] (96 h, read-out: ED50), the ED50 was found to be 0.61 mg/kg. Further, in series [2], the TD50 at 96 h was determined as 21.1 mg/kg and the selectivity ratio was found to be 34.4.
`Cc1cc(CC(=O)NC(C)C(=O)O)n(C)c1C(=O)c1ccc(Cl)cc1` (centres unmarked) [VIII (1), N--{[5-(4-chlorobenzoyl)-1,4-dimethyl-1H--pyrrol-2-yl]-acetyl}-alanine]: in series [1] (96 h, read-out: ED50), the 50% effective dose (ED50) worked out at 0.67 mg/kg. For the same compound, in series [2], the TD50 at 96 h turned out to be 25.4 mg/kg and the selectivity ratio came to 37.6.
The corresponding values for `CSCCC(NC(=O)Cc1cc(C)c(C(=O)c2ccc(Cl)cc2)n1C)C(=O)O` (centres unmarked) [VIII (2), N--{[5-(4-chlorobenzoyl)-1,4-dimethyl-1H--pyrrol-2-yl]-acetyl}-methionine] are 0.93 mg/kg, 43.7 mg/kg and 46.9.
`Cc1cc(CC(=O)N[C@@H](CCC(=O)O)C(=O)O)n(C)c1C(=O)c1ccc(Cl)cc1` [VIII (3), N--{[5-(4-chlorobenzoyl)-1,4-dimethyl-1H--pyrrol-2-yl]-acetyl}-glutamic acid]: the 50% effective dose (ED50) in series [1] amounted to 0.54 mg/kg/day. In addition, in series [2], the “AII (antiinflammatory index, UD50/ED50)” value was determined as 68.9. Further, the UD50 in series [2] (96 h) was 37.0 mg/kg/day.
For `Cc1cc(CC(=O)NC(CC(=O)O)C(=O)O)n(C)c1C(=O)c1ccc(Cl)cc1` (centres unmarked) [VIII (4), N--{[5-(4-chlorobenzoyl)-1,4-dimethyl-1H--pyrrol-2-yl]-acetyl}-aspartic acid], the median effective dose (ED50) in series [1] (96 h, read-out: ED50) was 0.76 mg/kg. Besides, in series [2], the TD50 at 96 h was 71 mg/kg and the selectivity ratio was determined as 93.1.
As for `Cc1cc(CC(=O)NC(CCCCN)C(=O)O)n(C)c1C(=O)c1ccc(Cl)cc1` (centres unmarked) [X, N^2 -{[5-(4-chlorobenzoyl)-1,4-dimethyl-1H-pyrrol-2-yl]-acetyl}-lysine-hydrate(5:8)], the median effective dose (ED50) in series [1] (96 h, read-out: ED50) stood at 0.64 mg/kg. Besides, in series [2], the TD50 at 96 h is 35.1 mg/kg and the selectivity ratio was 54.8.
Turning to `Cc1cc(CC(=O)N[C@@H](CCC(N)=O)C(=O)O)n(C)c1C(=O)c1ccc(Cl)cc1` [XI, N-{[5-(4-chlorobenzoyl)-1,4-dimethyl-1H-pyrrol-2-yl]-acetyl}-glutamine], the 50% effective dose (ED50) in series [1] (96 h, read-out: ED50) turned out to be 0.72 mg/kg. For the same compound, in series [2], the TD50 at 96 h came out at 33.4 mg/kg and the selectivity ratio turned out to be 46.5.
`Cc1cc(CC(=O)O)n(C)c1C(=O)c1ccc(Cl)cc1` [zomepirac, [5-(4-chlorobenzoyl)-1,4-dimethyl-1H-pyrrol-2-yl]acetic acid, reference compound]: the ED50 in series [1] (96 h, read-out: ED50) was 0.51 mg/kg. The “side effect (in words)” value in series [3] was “gastrointestinal irritation”. Moreover, the “mode of action (in words)” value in series [4] is “inhibition of prostaglandin biosynthesis”. Further, in series [2], the TD50 at 96 h came out at 13.8 mg/kg and the selectivity ratio came out at 27.2.

One may read the ED50 as the midpoint of the dose-response relation.
